Data: patent US20020032330A1, “Propionic acid derivatives” (priority 1996, published 2002)

Tests used:
KKA^y mouse = test: Hypoglycemic and hypolipidemic effect in KKA^y mouse (oral, once a day for three days); assay type: in vivo; conditions: KKA^y mice, blood 18 hours after final administration
Experimental: The hypoglycemic effect and hypolipidemic effect were examined using KKA^y mouse which was known as insulin-independent diabetic animal. A group of KKA^y mice (9 to 11 week age) were divided into several groups based on plasma glucose concentration. Each group included mice having an equal plasma glucose concentration. To the mouse was orally administered a compound of the invention in the form of suspension in a 1% methylcellulose solution. The administration was performed once a day and for a period of three days. To the control (mouse having been administered no hypoglycemic agent) was orally administered a 1% methylcellulose solution in the same manner.
After 18 hours from the final administration, blood was collected, and the plasma glucose concentration and the triglyceride concentration were measured. The measurements were performed using commercially available measuring kits (Glucose CII-TestWako and Triglyceride G-TestWako, respectively, both available from Wako Chemicals Co., Ltd.).
The plasma glucose concentration and the triglyceride concentration were examined for each of the divided mouse groups, and their ratio (%) per the corresponding values obtained in the control was calculated.
The same tests were also performed using the comparison compounds, that is, troglitazone and pioglitazone hydrochloride, which were known as pharmaceuticals for treating diabetes.

Structure (SMILES)	Plasma glucose concentration (% per control) (KKA^y mouse; dosage 30 mg/kg)	Triglyceride concentration (% per control) (KKA^y mouse; dosage 30 mg/kg)	Plasma glucose concentration (% per control) (KKA^y mouse; dosage 100 mg/kg)	Triglyceride concentration (% per control) (KKA^y mouse; dosage 100 mg/kg)	further results
CCCSC(Cc1cnc2cc(OCc3ccc(Cl)cc3)ccc2c1)C(=O)O (centres unmarked) [Example 2, 3-[7-(4-Chlorobenzyloxy)-3-quinolyl]-2-(propylthio) propionic acid]					melting point: 50 to 60 °C
CCOC(Cc1ccc2c(CCc3nc(-c4ccccc4)oc3C)noc2c1)C(=O)O (centres unmarked) [Compound 7, 2-ethoxy-3-[3-[2-(2-phenyl-5-methyl-4-oxazolyl)ethyl]-1,2-benzisoxazol-6-yl]-propionic acid]					Plasma glucose concentration (% per control) (KKA^y mouse; dosage 1 mg/kg): 76 % per control; Triglyceride concentration (% per control) (KKA^y mouse; dosage 1 mg/kg): 87 % per control; Plasma glucose concentration (% per control) (KKA^y mouse; dosage 3 mg/kg): 61 % per control; Triglyceride concentration (% per control) (KKA^y mouse; dosage 3 mg/kg): 65 % per control; Plasma glucose concentration (% per control) (KKA^y mouse; dosage 10 mg/kg): 60 % per control; Triglyceride concentration (% per control) (KKA^y mouse; dosage 10 mg/kg): 45 % per control
CCOC(Cc1cnc2ccc(OCc3ccc(Cl)cc3)cc2c1)C(=O)O (centres unmarked) [Compound 3, 3-[6-(4-chlorobenzyloxy)-3-quinolyl]-2-ethoxypropionic acid]	63 % per control	66 % per control			
O=C(O)C(Cc1cnc2cc(OCc3ccc(Cl)cc3)ccc2c1)Oc1ccccc1 (centres unmarked) [Compound 5, 3-[7-(4-chlorobenzyloxy)-3-quinolyl]-2-phenoxypropionic acid]	77 % per control	81 % per control			
CCOC(Cc1cnc2cc(OCc3ccc(Cl)cc3)ccc2c1)C(=O)O (centres unmarked) [Compound 4, 3-[7-(4-chlorobenzyloxy)-3-quinolyl]-2-ethoxypropionic acid]	58 % per control	61 % per control			
CCc1ccc(CCOc2ccc(CC3SC(=O)NC3=O)cc2)nc1.Cl (centres unmarked) [Pioglitazone hydrochloride, reference compound]	68 % per control	84 % per control	65 % per control	69 % per control	
Cc1c(C)c2c(c(C)c1O)CCC(C)(COc1ccc(CC3SC(=O)NC3=O)cc1)O2 (centres unmarked) [Troglitazone, reference compound]	84 % per control	99 % per control	68 % per control	101 % per control	
O=C(O)C(Cc1cnc2ccc(OCc3ccc(C(F)(F)F)cc3)cc2c1)Sc1ccccc1 (centres unmarked) [Compound 1, 3-[6-[(4-trifluoromethyl)benzyloxy]-3-quinolyl]-2-(phenylthio) propionic acid]			68 % per control	60 % per control	
Cc1oc(-c2ccccc2)nc1CCc1noc2cc(CC(Sc3ccccc3)C(=O)O)ccc12 (centres unmarked) [Compound 6, 2-phenylthio-3-[3-[2-(2-phenyl-5-methyl-4-oxazolyl)ethyl]-1,2-benzisoxazol-6-yl]-propionic acid]			46 % per control	31 % per control	
COCCOC(Cc1cnc2ccc(OCc3ccc([N+](=O)[O-])cc3)cc2c1)C(=O)O (centres unmarked) [Example 7, 2-(2-Methoxyethoxy)-3-[6-(4-nitrobenzyloxy)-3-quinolyl]propionic acid]					melting point: 146 to 148 °C
COCCOC(Cc1cnc2cc(OCc3ccc(Cl)cc3)ccc2c1)C(=O)O (centres unmarked) [Example 6, 3-[7-(4-Chlorobenzyloxy)-3-quinolyl]-2-(2-methoxyethoxy) propionic acid]					melting point: 110 to 113 °C
COCCOC(Cc1cc2cc(OCc3ccc(C(F)(F)F)cc3)ccc2[nH]1)C(=O)O (centres unmarked) [Compound 2, 2-(2-methoxyethoxy)-3-[5-[(4-trifluoro-methyl)benzyloxy]-2-indolyl]propionic acid]	53 % per control	17 % per control			
